We go through 3 compounds from publication PMC9611259, “Antimicrobial Peptides Active in In Vitro Models of Endodontic Bacterial Infections Modulate Inflammation in Human Cardiac Fibroblasts” (Pharmaceutics, 2022).

One series deals with C. glabrata ATCC 90030. It counts as cell-based.
Another series has as its system C. albicans ATCC 90028. The format is cell-based.
Series [1] concerns E. faecalis PE. It counts as cell-based, Enterococcus faecalis. The settings on record: 24 h preformed biofilm challenged with peptide 14 h at 37 °C, crystal violet OD595, triplicate wells. The procedure: (§1) For MBIC, the bacterial suspension (200 μL) of E. faecalis PE, E. faecalis 51299, E. coli TG1, or E. coli LC711, obtained as above, was added to wells in triplicate, in a 96-well U-bottom plate and incubated at 37 °C for 24h. The supernatant was removed, and 200 μL M33D and M33i/l diluted in TSB was added to the wells in twofold serial dilutions of each peptide.
(§2) Untreated bacteria were used as positive control. After 14 h of static incubation at 37 °C, wells were washed thrice with PBS and fixed with PFA 4% in PBS (200 μL) for 30 min at room temperature. Wells were then washed three times, and crystal violet (1% in water) was added and incubated for 30 min in the dark. Wells were again washed, and the color dissolved with ethanol/acetone 80:20. Color was read at 595 nm. The MBIC is the lowest concentration of an antibiotic that results in an OD595 nm difference of ≤10% of the mean of two control well readings.
(§3) Biofilm inhibition activity was evaluated on the basis of two parameters: the biofilm prevention concentration (BPC) and the minimal biofilm inhibition concentration (MBIC). The BPC is the lowest concentration of peptide that results in 10% lower biofilm formation compared to untreated controls. The biofilm was measured after removing planktonic cells by washing the wells, previously incubated for 24 h with the bacteria and the peptide. MBIC is the lowest concentration of peptide that results in a 10% reduction in preformed biofilm compared to untreated controls. A 24 h biofilm was challenged with serial dilutions of the peptides for 14 h. Then after removal of planktonic cells, the residual biofilm was measured. Crystal violet absorbance at […] was used to measure biofilm in the case of both parameters.

In series [2] the test system is E. faecalis ATCC 51299. The format is cell-based, Enterococcus faecalis. The settings on record: 24 h preformed biofilm challenged with peptide 14 h at 37 °C, crystal violet OD595, triplicate wells. How it is done: as §1, §2, §3
The next series has as its system Candida species. It counts as cell-based.
A short description of the next series: in vitro. It counts as in vitro ADME. The settings on record: human, serum. The procedure:
A pool of sera from healthy volunteers (n = 5) was diluted to 50% with RPMI 1640 medium. A 5 μg/mL solution of the peptides in 50% serum was incubated at 37 °C for different time intervals (2, 4, 24, 48, and 72 h). At the established time, trichloroacetic acid was added at a 7.5% concentration, and the sample was centrifuged at 12,000–13,000× g for 15 min. Part of the supernatant was used for the MALDI-TOF analysis (2 μL) and part (250 μL) for the HPLC analysis, after being diluted with 1% TFA (750 μL). Time-zero HPLC and MS-spectroscopy spectra were obtained immediately after mixing the peptide with 50% serum. The presence of the intact peptide was determined in HPLC by spotting and integrating the peptide peak at the correct retention time. The identity of the peptide peak was further also confirmed by MALDI mass spectrometry.

Series [3] can be described thus: Eukaryotic cell viability assay (MTT). The settings on record: mouse; 24 h incubation at 37 °C, MTT, n = 3; read-out: EC50 cytotoxicity. The format is cell-based, murine. The procedure:
RAW 264.7 cells, 5 × 10^3 per well, were seeded in 96-well plates and incubated for 24 h at 37 °C in a 5% CO2 atmosphere. A 100 μL volume of peptides at different concentrations in fresh medium was then added to the wells and kept for 24 h. Then 20 μL MTT (5 mg/mL) was added to each well, and the plate was incubated at 37 °C for 3 h. Finally, 120 μL HCl 4 mM in isopropanol was added to each well to dissolve the formazan crystals. Optical density was measured with a microplate reader (Bio-Rad, Hercules, CA, USA) at 570 nm. Cell viability was calculated by comparing the values of treated with those of untreated cells. Curves and EC50 were calculated using GraphPad Prism 5.03 software.

For a further series, the system named is E. faecalis Fi74B1. It counts as cell-based, Enterococcus faecalis. The procedure: (§4) The bacteria reported in Table 1 were used for conventional susceptibility testing experiments. M33D and M33i/l MICs were determined in triplicate on reference and clinical strains using a microdilution assay, performed according to the guidelines of the Clinical and Laboratory Standards Institute. Briefly, strains were grown on Mueller–Hinton (MH) agar plates (Becton Dickinson, Franklin Lakes, NJ, USA) and a single colony for each strain was picked using a sterile cotton swab, streaked in sterile cation-supplemented MH, and measured with a densitometer (Densichek, bioMèrieux, Marcy l’Etoile, France) up to 0.15 optical density. Wells of a microtiter plate containing 50 μL serial-doubling dilutions of the peptides were inoculated with an equal volume of bacterial suspension. The final bacterial inoculum was 5 × 10^4 CFU/well in a volume of 100 μL. […] Assays were performed in triplicate, and the median MIC values were recorded.

Series [4] relates to E. faecalis PE. The format is cell-based, Enterococcus faecalis. The procedure: as §4
The subject of series [5] is E. faecalis ATCC 51299. The format is cell-based, Enterococcus faecalis. How it is done: as §4
The subject of a further series is E. faecalis Fi74B4. It counts as cell-based, Enterococcus faecalis. The procedure: as §4
For the next series, the system named is C. krusei ATCC 6268. The format is cell-based.
For series [6], the system named is E. coli TG1. It counts as cell-based, Escherichia coli. The settings on record: 24 h preformed biofilm challenged with peptide 14 h at 37 °C, crystal violet OD595, triplicate wells. The procedure:
as §1, §2, §3

For series [7], the system named is E. coli LC711. It counts as cell-based, Escherichia coli. The settings on record: 24 h preformed biofilm challenged with peptide 14 h at 37 °C, crystal violet OD595, triplicate wells. The procedure: as §1, §2, §3
The test system of series [8] is E. coli TG1. The format is cell-based, Escherichia coli. The settings on record: reference strain; CLSI microdilution, 5 × 10^4 CFU/well, 35° 18–20 h, median of triplicate. The procedure: as §4
Background: Dilution methods test growth across graded concentrations, often in twofold steps.

Series [9] concerns E. coli LC711. It counts as cell-based, Escherichia coli. The settings on record: LC711. How it is done:
as §4

Another series relates to C. striatum ATCC. The format is cell-based. How it is done: as §4
The test system of another series is S. pneumoniae ATCC 49619. It counts as cell-based. The procedure:
as §4

In series [10] the test system is Enterococcus faecalis and faecium. The format is cell-based. How it is done: as §4
Another series relates to S. pyogenes CCUG2557. It counts as cell-based. How it is done:
as §4

Series [11] concerns Staphylococcus aureus and epidermidis. The format is cell-based. How it is done:
as §4

In the next series the test system is E. faecalis. The settings on record: standard-of-care antibiotics against E. faecalis; cited from earlier work. How it is done:
As reported in Table 2, biofilm inhibition was tested against two strains of E. faecalis, ATCC 51,299 and PE endodontic isolate, and two strains of E. coli, TG1 reference strain and LC711 clinical isolate (Table 2). The BPC of M33D was equal to the MIC against E. faecalis reference strain ATCC 51,299 and clinical isolate PE. The BPC of M33i/l was double and equal to the MIC in E. faecalis reference strain and clinical isolate, respectively. The MBIC of both peptides against E. faecalis reference strain and PE was 6 μM, i.e., from two to three times the MIC. The results are particularly promisi ...

In brackets after ≈: the same amount, converted by molar mass.

For orientation: amount remaining means the share of the starting amount still present when the sample was taken. The low end stands for a greater loss, the high end for greater stability. What is called EC50 is the concentration giving half of the maximal effect. Consider `CC[C@@H](C)[C@@H](NC(=O)[C@@H](CCCCN)NC(=O)[C@H](N)CCCCN)C(=O)N[C@H](CCCNC(=N)N)C(=O)N[C@@H](C(=O)N[C@H](CCCNC(=N)N)C(=O)N[C@H](CC(C)C)C(=O)N[C@H](CO)C(=O)N[C@H](C)C(=O)NCCCC[C@H](NC(=O)[C@@H](C)NC(=O)[C@@H](CO)NC(=O)[C@@H](CC(C)C)NC(=O)[C@@H](CCCNC(=N)N)NC(=O)[C@H](NC(=O)[C@@H](CCCNC(=N)N)NC(=O)[C@H](NC(=O)[C@@H](CCCCN)NC(=O)[C@H](N)CCCCN)[C@H](C)CC)C(C)C)C(=O)NCCCC[C@H](NC(=O)[C@H](CCCCNC(=O)[C@@H](C)NC(=O)[C@@H](CO)NC(=O)[C@@H](CC(C)C)NC(=O)[C@@H](CCCNC(=N)N)NC(=O)[C@H](NC(=O)[C@@H](CCCNC(=N)N)NC(=O)[C@H](NC(=O)[C@@H](CCCCN)NC(=O)[C@H](N)CCCCN)[C@H](C)CC)C(C)C)NC(=O)[C@@H](C)NC(=O)[C@@H](CO)NC(=O)[C@@H](CC(C)C)NC(=O)[C@@H](CCCNC(=N)N)NC(=O)[C@H](NC(=O)[C@@H](CCCNC(=N)N)NC(=O)[C@H](NC(=O)[C@@H](CCCCN)NC(=O)[C@H](N)CCCCN)[C@H](C)CC)C(C)C)C(=O)NCCC(=O)O)C(C)C` [M33D], for which the MIC in the series with C. glabrata ATCC 90030 is 12 (64) μM; in the series with C. albicans ATCC 90028, 5 (24) μM; against E. faecalis Fi74B1, 0.8 (4) μM; in the series on E. faecalis PE [4] it was 1.5 (8) μM; in the series with E. faecalis ATCC 51299 [5], 3 (16) μM; in the series with E. faecalis Fi74B4, 1.5 (8) μM. Moreover, the MIC was 6 (32) μM in the series with C. krusei ATCC 6268; 1.5 µM (≈ 7.02 µg/mL) against E. coli TG1 [8]; 1.5 µM (≈ 7.02 µg/mL) in the series with E. coli LC711 [9]; 1.5 µM (≈ 7.02 µg/mL) against C. striatum ATCC; 6 (32) μM in the series with S. pneumoniae ATCC 49619; 6 (32) μM against S. pyogenes CCUG2557. Further, the MBIC with E. faecalis PE [1] was 6 µM; with E. faecalis ATCC 51299 [2], 6 µM; in the series on E. coli TG1 [6], 3 µM; with E. coli LC711 [7], 3 µM. In addition, the “MIC range against Candida species” value with Candida species was in the range of 5 to 12 µM. The compound further showed a share remaining at 72 h, 5 μg/mL in the series “in vitro” of 31%. Also, in series [3], the EC50 at 24 h is 30 µM. For the same compound, the “MIC range against Enterococcus faecalis and faecium” value in [10] is 0.8 to 3 µM. For the same compound, the “MIC range against Staphylococcus aureus and epidermidis” value in [11] lay within 0.4 to 1.5 µM.

`CC1(C)S[C@@H]2[C@H](NC(=O)[C@H](N)c3ccccc3)C(=O)N2[C@H]1C(=O)O` [ampicillin]: the “MBIC as multiple of the MIC” value in the series with E. faecalis was 2048 times the MIC.

For the compound `CC(=O)NC[C@H]1CN(c2ccc(N3CCOCC3)c(F)c2)C(=O)O1` [linezolid], the “MBIC as multiple of the MIC” value in the series on E. faecalis is listed as 1024 times the MIC.
